# Reference: patent US10308639B2, “Phosphatidylinositol 3-kinase inhibitors” (Gilead Sciences, Inc., priority 2014, dated 2019)
# Where two headings read alike, the source gives them in different places.
# Key:
# Assay type in all cases: biochemical
# PI3Kβ = biological target: T1, PI3Kβ (Homo sapiens, UniProt P42338); experiment: TR-FRET enzymatic activity assay, PI3Kβ
# T1 construct: made in house
# PI3Kδ = biological target: T2, PI3Kδ (Homo sapiens, UniProt O00329); experiment: TR-FRET enzymatic activity assay, PI3Kδ
# T2 construct: made in house
# PI3Kγ = biological target: T3, PI3Kγ (Homo sapiens, UniProt P48736); experiment: TR-FRET enzymatic activity assay, PI3Kγ; conditions: read-out: PI3Kγ IC50
# T3 construct: made in house
# In short: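 Enzymatic activity against the PI3K isoforms was measured using a time-resolved fluorescence resonance energy transfer (TR-FRET) assay.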
# [1] = Table 2, TR-FRET, 2x Km ATP, 30 minutes at 25° C.
# T3 sequence (P48736 whole entry): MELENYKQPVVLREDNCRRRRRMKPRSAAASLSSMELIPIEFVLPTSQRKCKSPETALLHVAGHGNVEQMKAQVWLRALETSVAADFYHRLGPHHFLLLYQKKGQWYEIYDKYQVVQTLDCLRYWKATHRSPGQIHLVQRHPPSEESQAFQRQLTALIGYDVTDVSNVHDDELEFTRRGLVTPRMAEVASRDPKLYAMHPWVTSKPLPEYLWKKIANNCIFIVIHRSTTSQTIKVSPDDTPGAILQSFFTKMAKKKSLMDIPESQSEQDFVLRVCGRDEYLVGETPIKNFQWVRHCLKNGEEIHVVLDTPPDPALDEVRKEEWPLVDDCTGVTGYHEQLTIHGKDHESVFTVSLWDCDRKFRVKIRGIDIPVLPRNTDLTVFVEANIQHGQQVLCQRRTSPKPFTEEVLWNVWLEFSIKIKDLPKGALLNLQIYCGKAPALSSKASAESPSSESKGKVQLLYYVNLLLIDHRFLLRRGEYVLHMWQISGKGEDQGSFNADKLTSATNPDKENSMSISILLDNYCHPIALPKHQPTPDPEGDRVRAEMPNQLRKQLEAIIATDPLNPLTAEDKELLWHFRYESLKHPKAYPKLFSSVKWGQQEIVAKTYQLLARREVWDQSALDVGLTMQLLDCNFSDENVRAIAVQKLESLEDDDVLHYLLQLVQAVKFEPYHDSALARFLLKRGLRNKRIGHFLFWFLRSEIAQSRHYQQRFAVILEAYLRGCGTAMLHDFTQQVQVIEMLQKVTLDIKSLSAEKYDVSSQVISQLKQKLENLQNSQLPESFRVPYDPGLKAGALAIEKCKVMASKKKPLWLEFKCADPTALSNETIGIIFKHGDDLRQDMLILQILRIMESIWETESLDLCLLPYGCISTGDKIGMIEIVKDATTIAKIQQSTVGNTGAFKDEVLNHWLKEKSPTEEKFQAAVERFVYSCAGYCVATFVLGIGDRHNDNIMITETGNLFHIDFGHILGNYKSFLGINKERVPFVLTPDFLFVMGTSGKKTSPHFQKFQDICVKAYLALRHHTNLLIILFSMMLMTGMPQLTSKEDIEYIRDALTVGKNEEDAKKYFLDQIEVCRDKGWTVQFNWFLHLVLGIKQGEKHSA
# T1 sequence (P42338 whole entry): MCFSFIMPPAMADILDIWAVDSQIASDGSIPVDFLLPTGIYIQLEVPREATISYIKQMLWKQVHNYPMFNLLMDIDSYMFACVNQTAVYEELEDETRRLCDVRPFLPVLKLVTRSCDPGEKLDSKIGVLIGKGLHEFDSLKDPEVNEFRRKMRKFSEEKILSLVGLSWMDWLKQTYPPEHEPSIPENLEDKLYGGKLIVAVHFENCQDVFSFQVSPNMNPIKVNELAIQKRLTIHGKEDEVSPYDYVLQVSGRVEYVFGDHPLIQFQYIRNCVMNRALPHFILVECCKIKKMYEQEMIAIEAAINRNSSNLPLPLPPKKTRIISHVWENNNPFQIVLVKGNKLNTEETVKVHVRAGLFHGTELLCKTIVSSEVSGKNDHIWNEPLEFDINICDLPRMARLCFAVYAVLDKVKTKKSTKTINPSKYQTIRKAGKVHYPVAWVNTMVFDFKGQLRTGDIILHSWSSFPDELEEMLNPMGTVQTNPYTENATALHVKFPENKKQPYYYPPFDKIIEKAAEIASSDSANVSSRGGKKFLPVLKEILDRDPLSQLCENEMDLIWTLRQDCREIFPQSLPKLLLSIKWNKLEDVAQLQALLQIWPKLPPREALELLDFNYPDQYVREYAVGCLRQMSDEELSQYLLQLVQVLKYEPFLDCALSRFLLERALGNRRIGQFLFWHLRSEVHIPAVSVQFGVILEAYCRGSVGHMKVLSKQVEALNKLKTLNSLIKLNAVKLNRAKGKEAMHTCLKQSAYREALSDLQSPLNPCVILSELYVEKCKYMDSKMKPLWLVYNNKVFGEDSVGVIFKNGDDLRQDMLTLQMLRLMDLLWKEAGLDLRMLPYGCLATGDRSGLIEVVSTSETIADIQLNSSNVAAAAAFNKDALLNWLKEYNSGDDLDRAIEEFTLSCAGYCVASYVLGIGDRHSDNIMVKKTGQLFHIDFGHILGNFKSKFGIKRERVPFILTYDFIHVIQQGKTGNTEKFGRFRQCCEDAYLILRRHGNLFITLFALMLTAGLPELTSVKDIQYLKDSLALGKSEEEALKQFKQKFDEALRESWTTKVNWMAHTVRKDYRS
# T1 sequence (P27986 whole entry partner): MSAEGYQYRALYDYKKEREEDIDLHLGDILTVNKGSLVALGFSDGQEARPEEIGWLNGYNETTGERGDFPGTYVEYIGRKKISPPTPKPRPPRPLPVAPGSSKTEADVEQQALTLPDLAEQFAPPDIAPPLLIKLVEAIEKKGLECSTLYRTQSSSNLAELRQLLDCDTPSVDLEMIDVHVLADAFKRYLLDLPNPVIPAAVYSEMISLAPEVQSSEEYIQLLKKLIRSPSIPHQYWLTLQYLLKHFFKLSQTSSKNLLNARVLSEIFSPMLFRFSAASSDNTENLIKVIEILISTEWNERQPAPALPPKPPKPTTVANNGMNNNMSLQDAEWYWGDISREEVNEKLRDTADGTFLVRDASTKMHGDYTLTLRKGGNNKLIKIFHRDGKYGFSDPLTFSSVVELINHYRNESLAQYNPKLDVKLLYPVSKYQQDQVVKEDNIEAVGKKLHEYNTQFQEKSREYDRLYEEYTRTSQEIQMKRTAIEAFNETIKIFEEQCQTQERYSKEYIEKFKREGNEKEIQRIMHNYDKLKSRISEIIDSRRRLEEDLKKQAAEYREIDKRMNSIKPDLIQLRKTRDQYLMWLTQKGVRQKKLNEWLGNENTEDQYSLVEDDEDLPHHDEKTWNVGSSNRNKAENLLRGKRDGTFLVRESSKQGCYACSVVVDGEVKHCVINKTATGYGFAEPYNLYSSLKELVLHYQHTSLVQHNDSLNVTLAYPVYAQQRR
# T2 sequence (O00329 whole entry): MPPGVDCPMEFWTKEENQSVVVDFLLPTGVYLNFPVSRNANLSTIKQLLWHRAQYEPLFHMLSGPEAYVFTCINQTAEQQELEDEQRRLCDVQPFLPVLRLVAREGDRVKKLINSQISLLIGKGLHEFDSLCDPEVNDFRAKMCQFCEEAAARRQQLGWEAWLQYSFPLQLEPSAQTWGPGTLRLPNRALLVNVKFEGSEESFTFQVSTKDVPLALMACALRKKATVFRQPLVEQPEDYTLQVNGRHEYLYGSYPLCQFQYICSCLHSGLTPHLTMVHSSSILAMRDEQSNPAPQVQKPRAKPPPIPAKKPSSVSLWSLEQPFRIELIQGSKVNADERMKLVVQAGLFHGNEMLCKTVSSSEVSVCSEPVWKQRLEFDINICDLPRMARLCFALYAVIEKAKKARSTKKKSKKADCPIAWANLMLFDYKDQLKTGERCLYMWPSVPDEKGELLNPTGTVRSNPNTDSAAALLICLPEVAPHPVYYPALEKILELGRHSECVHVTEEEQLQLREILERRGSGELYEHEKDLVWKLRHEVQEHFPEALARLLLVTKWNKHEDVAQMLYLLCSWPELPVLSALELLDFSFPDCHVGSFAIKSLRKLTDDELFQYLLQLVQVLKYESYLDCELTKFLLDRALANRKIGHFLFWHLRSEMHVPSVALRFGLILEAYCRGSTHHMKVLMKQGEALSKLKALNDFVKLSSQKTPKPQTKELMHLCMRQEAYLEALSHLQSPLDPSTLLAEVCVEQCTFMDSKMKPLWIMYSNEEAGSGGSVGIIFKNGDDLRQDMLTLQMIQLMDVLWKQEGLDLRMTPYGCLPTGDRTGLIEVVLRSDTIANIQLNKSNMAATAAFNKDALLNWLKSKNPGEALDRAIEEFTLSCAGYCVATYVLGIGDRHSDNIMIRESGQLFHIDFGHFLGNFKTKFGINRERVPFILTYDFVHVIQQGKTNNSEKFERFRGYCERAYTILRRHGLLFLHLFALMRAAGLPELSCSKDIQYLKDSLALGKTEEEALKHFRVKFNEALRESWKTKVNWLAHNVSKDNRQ
# T2 sequence (P27986 whole entry partner): as the sequence (P27986 whole entry partner) above
SMILES,"IC50 (PI3Kβ; Table 2a, same assay)","IC50 (PI3Kδ; Table 2a, same assay)","IC50 (PI3Kγ; Table 2a, same assay)",IC50 (PI3Kβ; [1]),IC50 (PI3Kδ; [1]),IC50 (PI3Kγ),IC50 (PI3Kγ; [1])
"C[C@H](Nc1nc(N)nc(N)c1Cl)c1nc2c(Cl)cccc2c(=O)n1-c1cc[nH]n1 [Compound 156, (S)-8-chloro-2-(1-((2,6-diamino-5-chloropyrimidin-4-yl)amino)ethyl)-3-(1H-pyrazol-3-yl)quinazolin-4(3H)-one]",0.026 µM,0.009 µM,> 10 µM,,,,
"CC[C@H](Nc1ncnn2ccnc12)c1nc2c(Cl)ccc(Cl)c2c(=O)n1-c1cc[nH]n1 [Compound 43, (S)-5,8-dichloro-2-(1-(imidazo[2,1-f][1,2,4]triazin-4-ylamino)propyl)-3-(1H-pyrazol-3-yl)quinazolin-4(3H)-one]",,,,0.039 µM,0.009 µM,> 10 µM,
"C[C@H](Nc1nc(N)nc(C(F)F)c1C#N)c1nc2c(Cl)ccc(Cl)c2c(=O)n1-c1cc[nH]n1 [Compound 190, (S)-2-amino-4-((1-(5,8-dichloro-4-oxo-3-(1H-pyrazol-3-yl)-3,4-dihydroquinazolin-2-yl)ethyl)amino)-6-(difluoromethyl)pyrimidine-5-carbonitrile]",0.031 µM,0.008 µM,9.9 µM,,,,
"N#Cc1c(N)nc(N)nc1N1CCC[C@H]1c1nc2cccc(Cl)c2c(=O)n1-c1cc[nH]n1 [Compound 24, (S)-2,4-diamino-6-(2-(5-chloro-4-oxo-3-(1H-pyrazol-3-yl)-3,4-dihydroquinazolin-2-yl)pyrrolidin-1-yl)pyrimidine-5-carbonitrile]",,,,0.022 µM,0.004 µM,,0.78 µM
"C[C@H](Nc1ncnc(N)c1C#Cc1ccc(F)cn1)c1nc2cccc(Cl)c2c(=O)n1-c1cc[nH]n1 [Compound 72, (S)-2-(1-((6-amino-5-((5-fluoropyridin-2-yl)ethynyl)pyrimidin-4-yl)amino)ethyl)-5-chloro-3-(1H-pyrazol-3-yl)quinazolin-4(3H)-one]",,,,0.004 µM,0.0005 µM,,4 µM
"C[C@H](Nc1nc(N)nc(N)c1Cl)c1nc2c(C(F)F)cc(F)cc2c(=O)n1-c1cc[nH]n1 [Compound 141, (S)-2-(1-((2,6-diamino-5-chloropyrimidin-4-yl)amino)ethyl)-8-(difluoromethyl)-6-fluoro-3-(1H-pyrazol-3-yl)quinazolin-4(3H)-one]",0.13 µM,0.11 µM,> 10 µM,,,,
"C[C@H](Nc1nc(Cl)nc2[nH]ncc12)c1nc2cccc(Cl)c2c(=O)n1-c1cc[nH]n1 [Compound 91, (S)-5-chloro-2-(1-((6-chloro-1H-pyrazolo[3,4-d]pyrimidin-4-yl)amino)ethyl)-3-(1H-pyrazol-3-yl)quinazolin-4(3H)-one]",,,,3.6 µM,2.4 µM,> 10 µM,
"CC[C@H](Nc1ncnc2ccc(Cl)nc12)c1nc2c(C#N)cccc2c(=O)n1-c1cn[nH]c1 [Compound 94, (S)-2-(1-((6-chloropyrido[3,2-d]pyrimidin-4-yl)amino)propyl)-4-oxo-3-(1H-pyrazol-4-yl)-3,4-dihydroquinazoline-8-carbonitrile]",,,,0.1 µM,0.008 µM,,1.5 µM
"C[C@H](Nc1nc(N)nc(N)c1Cl)c1nc2cccc(Cl)c2c(=O)n1-c1cn[nH]c1 [Compound 157, (S)-5-chloro-2-(1-((2,6-diamino-5-chloropyrimidin-4-yl)amino)ethyl)-3-(1H-pyrazol-4-yl)quinazolin-4(3H)-one]",0.015 µM,0.002 µM,1.2 µM,,,,
"C[C@H](Nc1nc(N)nc(N)c1Cl)c1nc2ccc(F)c(Cl)c2c(=O)n1-c1cc[nH]n1 [Compound 259, (S)-5-chloro-2-(1-((2,6-diamino-5-chloropyrimidin-4-yl)amino)ethyl)-6-fluoro-3-(1H-pyrazol-3-yl)quinazolin-4(3H)-one]",0.021 µM,0.006 µM,3.5 µM,,,,
"N#Cc1c(N)nc(N)nc1N[C@H](c1nc2ccc(F)c(Cl)c2c(=O)n1-c1cc[nH]n1)C1CC1 [Compound 262, (S)-2,4-diamino-6-(((5-chloro-6-fluoro-4-oxo-3-(1H-pyrazol-3-yl)-3,4-dihydroquinazolin-2-yl)(cyclopropyl)methyl)amino)pyrimidine-5-carbonitrile]",0.005 µM,0.001 µM,0.405 µM,,,,
